The source of these data is PMC9161616, “A first-in-human phase 1/2 study of FGF401 and combination of FGF401 with spartalizumab in patients with hepatocellular carcinoma or biomarker-selected solid tumors” (Journal of Experimental & Clinical Cancer Research : CR, 2022).

The subject of one data set is patients with HCC. Set-up: method as in PMID 31575541. The settings on record: cited from earlier work.
The test system of data set [1] is patients with HCC and intrahepatic cholangiocarcinoma. Set-up: method as in doi:10.1200/JCO.2019.37.15_suppl.4095, doi:10.1200/JCO.2021.39.15_suppl.4090. The settings on record: cited from earlier work.
Data set [2] can be described thus: Immunogenicity of spartalizumab (anti-drug antibodies). The class given is in vivo, human. How it is done:
(§1) Pharmacokinetic endpoints included plasma concentrations and PK parameters of FGF401 and spartalizumab. Pharmacokinetic parameters were determined with noncompartmental method(s) using Phoenix WinNonlin version 6.4 or above (Pharsight Corporation, Mountain View, Califormia, USA). Immunogenicity of spartalizumab was assessed through presence and/or concentration of anti-drug (spartalizumab) antibodies (ADA). Food effect on FGF401 exposure was evaluated through plasma concentration of FGF401 and relevant PK parameters when dosing under fed condition. Safety of the food effect was assessed through incidence and severity of AEs and serious AEs (SAEs), including changes in laboratory values, vital signs, and ECGs when dosing under fed condition.

Data set [3] is described as follows: Pharmacokinetics of spartalizumab in combination arm. The class given is in vivo, human. The conditions noted are these: for AUC0-504h / AUClast / Cmax / Tmax: Cycle 1 day 1; for AUC0-504h / AUClast / Cmax: geometric mean (CV%); for Tmax: median [min, max]. How it is done: as §1
The PK analyses and summary statistics were based on pharmacokinetic analysis set. Individual as well as mean concentration-time profiles were constructed using concentration data for spartalizumab and FGF401. Descriptive statistics for PK parameters included mean, standard deviation, coefficient of variation (CV%) mean, geometric mean, median, minimum, and maximum, with only the latter 3 for time to reach maximum concentration (Tmax) and additional 90% CI for accumulation ratio (Racc). Zero concentrations were not included in the geometric mean calculations. Missing concentrations or PK parameter values were not imputed.

Setting [4] is: HCC patients with > 2 prior lines of therapy, qd schedule.
[5] abbreviates: spartalizumab 300 mg with FGF401 80 mg, n=6.
The mark [6] stands for this setting: spartalizumab 300 mg with FGF401 120 mg, n=6.

Like-named read-outs stand apart in the source and are kept apart here.

A word on the Cmax: it is the maximum level reached in the sampled fluid or tissue.

As for `C=CC(=O)N[C@H]1CCOC[C@H]1Nc1ncc2cc(-c3c(Cl)c(OC)cc(OC)c3Cl)ccc2n1` [BLU-554, fisogatinib], the ORR in the data set with patients with HCC (FGF19-negative patients) was 0%. Further, the “median duration of response” value with patients with HCC (FGF19-positive patients, 95% CI: 3.7-not reached) is reported as 5.3 months. In the data set with patients with HCC (FGF19-positive patients), the ORR is 17%. Also, in the data set on patients with HCC, the “Treatment discontinuation due to AE” value was 12%. Further, the “Grade ≥ 3 TRAEs” value in the data set on patients with HCC (most common transaminase elevation) is recorded as 43%. Further, in the data set with patients with HCC (qd), the “treatment related AE: diarrhea” value is listed as 74%, the “treatment related AE: nausea” value is recorded as 42% and the “treatment related AE: vomiting” value is 35%.

Turning to `C=CC(=O)Nc1cc(N2CCN(CC)CC2)ccc1Nc1cc(N(C)C(=O)Nc2c(Cl)c(OC)cc(OC)c2Cl)ncn1` [H3B-6527], the “drug discontinuation due to AEs” value in data set [1] (HCC and intrahepatic cholangiocarcinoma, qd dosing) was 8.3%. Also, the “Grade 3 TEAE” value in data set [1] (HCC and intrahepatic cholangiocarcinoma) is reported as 12.5%. In data set [1] (setting [4]), the OS is 10.6 months and the PFS is listed as 4.1 months. For the same molecule, the ORR in data set [1] (all PR, HCC patients with > 2 prior lines of therapy, qd schedule) was 16.7%. Also, in data set [1] (responders + durable SD > 17 weeks, HCC, qd schedule), the clinical benefit rate is 45.8%.

As to “spartalizumab: humanized immunoglobulin G4κ monoclonal antibody that binds PD-1 and blocks its interaction with PD-L1/PD-L2”, in data set [2] (One of 12 patients, C2D1 and C3D1 predose), the “patients positive for treatment-induced ADA for spartalizumab” value is 8.3%. Further, in data set [2] (one ADA-positive patient), the ADA titers entry is recorded as “low to moderate” and the “influence of ADA on PK profiles” value was “did not appear to influence the PK profiles”. Besides, in data set [3] (spartalizumab 300 mg with FGF401 80 mg, n=3), the AUC0-504h is 760 (1.9) day*µg/mL. Further, in data set [3] (setting [5]), the AUClast is reported as 795 (34.5) day*µg/mL, the Cmax amounted to 74.7 µg/mL and the Tmax is 1.58 [1.5-161] h. In data set [3] (setting [6]), the AUC0-504h is 967 (13.9) day*µg/mL, the AUClast is on record as 978 (15.8) day*µg/mL, the Cmax was found to be 87.7 µg/mL and the Tmax is 1.5 [1.43-1.5] h. For the same molecule, in data set [3] (compared with refs 25, 30), the “spartalizumab exposures in combination versus similar studies with 300 mg q3w” value is on record as “might be comparable”. Besides, the “geo-mean AUClast” value in data set [3] (spartalizumab in combination with 80 mg FGF401) turned out to be 795 µg·days/mL. In addition, the “geo-mean AUClast” value in data set [3] (spartalizumab in combination with 120 mg FGF401) was determined as 978 µg·days/mL.
